Results: patent US20250011869A1, “TLR3 INHIBITORS FOR USE IN THE TREATMENT OF DISEASES ASSOCIATED WITH CARDIOVASCULAR CALCIFICATION” (priority 2021, published 2025)
Entries after “also recorded” stand apart in the source; their conditions may differ.

Columns and labels:
VICs = assay: Calcification assay of VICs in osteogenic medium (Alizarin Red S, alkaline phosphatase); assay type: cell-based, human; conditions: VICs in osteoblastic medium; for calcification / production of calcific nodules: Poly(I:C) 20 μg/mL or inhibitor 26 μM, Alizarin Red S
Method: For functional evaluation of osteoblastic activity, VICs were subjected to a calcification assay. Cells were cultured in osteogenic medium including 10 mmol/L beta-glycerophosphate, 10 nmol/L vitamin D3, and 10 nmol/L dexamethasone as described previously^4. The medium was changed every three days. Subsequently, supernatant was analyzed for alkaline phosphatase activity using the commercially available alkaline phosphatase assay kit (Abcam, Cambridge, UK). After careful rinsing with PBS, cells were fixed with 4% paraformaldehyde, washed with distilled water and Alizarin Red S staining solution (Alfa Aesar, Haverhill, MA) was added upon the fixed cells for 20 minutes at room temperature (RT). Imaging of the staining was performed using a Zeiss Axioplan 2 microscope (Zeiss, Oberkochen, Germany). Images were processed using Adobe Photoshop CS5.1 for Mac (Adobe Systems Inc., San Jose, CA, USA) and analyzed with ImageJ software (National Institutes of Health, Bethesda, […]).

zebrafish (Danio rerio) = assay: Zebrafish VitD3-induced calcification model; assay type: in vivo; conditions: larvae from 5 dpf, 5 days; for VitD3-induced calcification on co-incubation: VitD3 200 ng/mL with TLR3-inhibitor 5 μg/mL, opercle and all bone structures
Method: Fish were maintained and raised under standard husbandry conditions. VitD3 treatments were performed as previously described^26 with some minor modifications. Briefly: 15 animals (5 dpf) were pooled per 6-well pate and incubated for 5 days at 28° C. in 4 ml E3 medium containing 0.1% DMSO and different compounds as indicated. Larvae were fixed in 4% PFA overnight. Final concentration of compounds was 5 μg/mL for TLR3-inhibitor (Merck, Darmstadt, Germany) and 200 ng/mL VitD3 (Sigma, St. Louis, MO). Dilutions were generated from stock solutions with 10 mg/mL TLR3-INH and 200 mg/mL VitD3 in DMSO. Solutions containing VitD3 were changed every day. All experiments were done in duplicates. Alizarin Red stains were performed as described previously^27 with some minor modifications. After staining larvae were transferred to 100% glycerol and imaged. Area measurements were carried out as described^28.
Whole area: For each larva three independent ventral view images were taken with a Leica MZ16FA using standardized stereomicroscope settings. After each image the larvae were embedded anew. Data quantification was done with ImageJ. Standard white balance was used for background subtraction. Image were converted to greyscale (8 bit) and threshold was set to 225. The stained area excluding the otoliths was measured.
Opercula area: Larvae were imaged laterally from both sides using a standard microscope setting. Area measurements were performed as described above.

TLR3 = TLR3 (Homo sapiens, UniProt O15455); assay: HEK293 hTLR3 reporter cell assay (TLR3/ISRE LUCPorter, luminometer); assay type: cell-based; conditions: putative ligands at increasing concentrations, 24 h (biglycan 5, 10, 20 μg/ml)
Method: All cells were cultivated under standard conditions (37° C., supplied with 5% CO2). Passaging of the cells was performed at 70-90% confluency, and cells were only used until passage 7 as described previously^6. Polyinosinic: polycytidylic acid (Poly(I:C); Invivogen, San Diego, CA) was used to stimulate cells at a concentration of either 20 μg/mL or 5 μg/ml, depending on the assay. For blockade of TLR3, the commercially available dsRNA/TLR3 inhibitor ((R)-2-(3-Chloro-6-fluorobenzo [b] thiophene-2-carboxamido)-3-phenyl-propanoic acid) was used (Merck, Darmstadt, Germany) at a concentration of 1 μg/ml as described previously^1,7. LY294002 (Invivogen, San Diego, CA), a PI3K inhibitor, was used at a concentration of 10 μM. For blockade of IFNAR1, a specific blocking antibody (Invitrogen, Carlsbad, CA) was used at a concentration of 4 μg/ml. A stable HEK (human embryonic kidney) reporter cell line (TLR3/ISRE LUCPorter; Imgenex, USA) was purchased for luminometer assay experiments. Cells were cultivated according to the manufacturer's protocol in DMEM with 4.5 g/L glucose (Lonza, Switzerland), 10% FCS (Sigma, St. Louis, MO), penicillin/streptomycin, and 4 mM L-glutamine and […] puromycin (Gibco, USA) as selection agent. Reporter experiments were performed as described previously^8. […]

[1] = molecular target: T1, recombinant human TLR3 ectodomain (huTLR3-ECD), residues 27-700, C-terminal 6x His tag (human, UniProt O15455 27-700); assay: size-exclusion chromatography of the mixed proteins, fractions immunoblotted
T1 construct: also called purified TLR3 ectodomain; hTLR3-ECD
Method: To obtain core protein of bovine biglycan, purchased biglycan (Sigma, St. Louis, MO) was incubated with Chondroitinase ABC (Merck, Darmstadt, Germany) at 37° C. for 2 h. Digestion of chondroitin sulfate was verified by electrophoresis and subsequent Coomassie-staining. To 185 μl of digested BGN (0.5 mg/ml) 15 μl of TLR3 (1 mg/ml) was added and incubated on ice for 30 min. The sample was subjected to size exclusion chromatography (Supedex200 increased 10/300 GL column) using 20 mM HEPES pH7.5 100 mM NaCl as running buffer. Fractions were collected and analyzed by Immunoblotting as described above.

## O=C(N[C@H](Cc1ccccc1)C(=O)O)c1sc2cc(F)ccc2c1Cl [TLR3 inhibitor, (R)-2-(3-Chloro-6-fluorobenzo [b]thiophene-2-carboxamido)-3-phenyl-propanoic acid]
VICs
  calcification / production of calcific nodules: reduced calcification
VICs; listed as dsRNA/TLR3 complex inhibitor
  calcification / production of calcific nodules: reduced
VICs; supernatant
  alkaline phosphatase (ALP) activity: reduced
Zebrafish (Danio rerio)
  VitD3-induced calcification on co-incubation: reduced calcification; also recorded: abolished
Zebrafish (Danio rerio); listed as Tlr3 inhibitor
  VitD3-induced calcification on co-incubation: severely impaired calcification of the skeleton

## C=C1CC[C@H](O)C/C1=C/C=C1\CCC[C@]2(C)[C@@H]([C@H](C)CCCC(C)C)CC[C@@H]12 [VitD3, vitamin D3]
Zebrafish (Danio rerio); VitD3 200 ng/mL alone
  calcification of landmark bones: early and strong calcification of landmark bones

B1: rhBGN: BGN lacking chondroitin sulfate chains (protein)
chain (part 1 of 2): HHHHHH
chain (part 2 of 2): DEEASGADTSGVLDPDSVTPTYSAMCPFGCHCHLRVVQCSDLGLKSVPKEISPDTTLLDLQNNDISELRKDDFKGLQHLYALVLVNNKISKIHEKAFSPLRKLQKLYISKNHLVEIPPNLPSSLVELRIHDNRIRKVPKGVFSGLRNMNCIEMGGNPLENSGFEPGAFDGLKLNYLRISEAKLTGIPKDLPETLNELHLDHNKIQAIELEDLLRYSKLYRLGLGHNQIRMIENGSLSFLPTLRELHLDNNKLARVPSGLPDLKLLQVVYLHSNNITKVGVNDFCPMGFGVKRAYYNGISLFNNPVPYWEVQPATFRCVTDRLAIQFGNYKK
modifications: left off: small tags and cut ends
notes: BGN lacking chondroitin sulfate chains
TLR3
  activation of TLR3 reporter cells: did not activate TLR3

B2: core protein of bovine biglycan (purchased biglycan, Sigma, digested with Chondroitinase ABC) (ligand, UniProt P21809 38-369, looked up)
chain: DEEASGAETTSGIPDLDSLPPTYSAMCPFGCHCHLRVVQCSDLGLKAVPKEISPDTTLLDLQNNDISELRKDDFKGLQHLYALVLVNNKISKIHEKAFSPLRKLQKLYISKNHLVEIPPNLPSSLVELRIHDNRIRKVPKGVFSGLRNMNCIEMGGNPLENSGFEPGAFDGLKLNYLRISEAKLTGIPKDLPETLNELHLDHNKIQAIELEDLLRYSKLYRLGLGHNQIRMIENGSLSFLPTLRELHLDNNKLSRVPAGLPDLKLLQVVYLHTNNITKVGVNDFCPVGFGVKRAYYNGISLFNNPVPYWEVQPATFRCVTDRLAIQFGNYKK
modifications: chondroitin sulfate removed by Chondroitinase ABC digestion
notes: also called digested BGN; BGN
[1]
  binding result: binds
